Data taken from patent publication US12157730B2, “Heteroaryl derivative, method for producing same, and pharmaceutical composition comprising same as effective component” (VORONOI INC., priority 2019, dated 2024).

Biological target: T1, Ba/F3 cell EGFR Exon20 ins NPH (Homo sapiens, UniProt P00533, INS773NPH)
T1 construct: expressed in transfected cells; host or cells: Ba/F3
Experiment: Ba/F3 cell proliferation suppression, EGFR Exon20 ins NPH
Type: cell-based
Settings: GI50 class; Ba/F3 cell line with NPH inserted at Exon20 of EGFR; 72 hours
In short: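 Growth suppression determined as GI50 following 72 h exposure across 12 concentrations up to 50 um, with viability by luminescent ATP assay (CellTiter-Glo).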

| Structure (SMILES) | Ba/F3 (NPH) Activity |
| --- | --- |
| C=CC(=O)Nc1cc(Nc2cc(N3OCC[C@H]3Cc3ccccc3)ncn2)c(OC)cc1N1CCN(C2CCCC2)CC1 [compound 977, N-(5-((6-((R)-3-benzylisoxazolidine-2-yl)pyrimidine-4-yl)amino)-2-(4-cyclopentylpiperazine-1-yl)-4-methoxyphenyl) acrylamide] | C (500 nM ≤ GI50 < 5000 nM) |
| C=CC(=O)Nc1cc(Nc2cc(N3OCC[C@@H]3c3ccc(F)cc3F)ncn2)c(OC)cc1N1CCC(N2CCN(C3CCCC3)CC2)CC1 [Example 205, N-(2-(4-(4-cyclopentylpiperazine-1-yl)piperidine-1-yl)-5-((6-((R)-3-(2,4-difluorophenyl)isoxazolidine-2-yl)pyrimidine-4-yl)amino)-4-methoxyphenyl) acrylamide] | A (GI50 < 50 nM) |
| C=CC(=O)Nc1cc(Nc2cc(N3OCC[C@@H]3c3cccc(Cl)c3Cl)ncn2)c(OC)cc1N1CCC(N2CCN(C)CC2)CC1 [compound 565, N-(5-((6-((R)-3-(2,3-dichlorophenyl)isoxazolidine-2-yl)pyrimidine-4-yl)amino)-4-methoxy-2-(4-(4-methylpiperazine-1-yl)piperidine-1-yl)phenyl) acrylamide] | A (GI50 < 50 nM) |
| C=CC(=O)Nc1cc(Nc2cc(N3OCC[C@@H]3c3cccc(F)c3F)ncn2)c(OC)cc1N(C)CCN(C)C [compound 924, N-(5-((6-((R)-3-(2,3-difluorophenyl)isoxazolidine-2-yl)pyrimidine-4-yl)amino)-2-((2-(dimethylamino)ethyl)(methyl)amino)-4-methoxyphenyl) acrylamide] | A (GI50 < 50 nM) |
| C=CC(=O)Nc1cc(Nc2cc(N3OCC[C@@H]3c3cccc(Cl)c3C)ncn2)c(OC)cc1N1CCC(N2CCN(C3CCC3)CC2)CC1 [Example 188, N-(5-((6-((R)-3-(3-chloro-2-methylphenyl)isoxazolidine-2-yl)pyrimidine-4-yl)amino)-2-(4-(4-cyclobutylpiperazine-1-yl)piperidine-1-yl)-4-methoxyphenyl) acrylamide] | A (GI50 < 50 nM) |
| C=CC(=O)Nc1cc(Nc2cc(N3OCC[C@@H]3c3ccc(F)c(F)c3F)ncn2)c(OC)cc1N1CCC(N2CCN(C3CCC3)CC2)CC1 [Example 187, N-(2-(4-(4-cyclobutylpiperazine-1-yl)piperidine-1-yl)-4-methoxy-5-((6-((R)-3-(2,3,4-trifluorophenyl)isoxazolidine-2-yl)pyrimidine-4-yl)amino)phenyl)acrylamide] | A (GI50 < 50 nM) |
| C=CC(=O)Nc1cc(Nc2cc(N3OCC[C@@H]3c3cccc(F)c3)ncn2)c(OC)cc1N1CCOCC1 [compound 840, N-(5-((6-((R)-3-(3-fluorophenyl)isoxazolidine-2-yl)pyrimidine-4-yl)amino)-4-methoxy-2-morpholinophenyl) acrylamide] | A (GI50 < 50 nM) |
| C=CC(=O)Nc1cc(Nc2cc(N3OCC[C@@H]3c3ccc(F)c(Cl)c3F)ncn2)c(OC)cc1N1CCN(C)[C@@H](C)C1 [compound 665, N-(5-((6-((R)-3-(3-chloro-2,4-difluorophenyl)isoxazolidine-2-yl)pyrimidine-4-yl)amino)-2-((S)-3,4-dimethylpiperazine-1-yl)-4-methoxyphenyl) acrylamide] | B (50 nM ≤ GI50 < 500 nM) |
| C=CC(=O)Nc1cc(Nc2cc(N3OCC[C@@H]3c3cccc(Cl)c3F)ncn2)c(OC)cc1N1CCC(N2CCC3(CC2)CC3)CC1 [compound 355, N-(2-(4-(6-azaspiro[2.5]octan-6-yl)piperidine-1-yl)-5-((6-((R)-3-(3-chloro-2-fluorophenyl)isoxazolidine-2-yl)pyrimidine-4-yl)amino)-4-methoxyphenyl) acrylamide] | A (GI50 < 50 nM) |
| C=CC(=O)Nc1cc(Nc2cc(N3OCC[C@@H]3Cc3ccccc3)ncn2)c(OC)cc1N1CCC(N2CCN(C3CC3)CC2)CC1 [compound 955, N-(5-((6-((S)-3-benzylisoxazolidine-2-yl)pyrimidine-4-yl)amino)-2-(4-(4-cyclopropylpiperazine-1-yl)piperidine-1-yl)-4-methoxyphenyl) acrylamide] | A (GI50 < 50 nM) |

Next, values leading:

| Ba/F3 (NPH) Activity | Structure (SMILES) |
| --- | --- |
| A (GI50 < 50 nM) | C=CC(=O)Nc1cc(Nc2cc(N3OCC[C@@H]3c3cc(F)cc(F)c3)ncn2)c(OC)cc1N1CCC(N2C[C@H]3C[C@@H]2CN3CC)CC1 [Example 267, N-(5-((6-((R)-3-(3,5-difluorophenyl)isoxazolidine-2-yl)pyrimidine-4-yl)amino)-2-(4-((1R,4R)-5-ethyl-2,5-diazabicyclo[2.2.1]heptane-2-yl)piperidine-yl)-4-1-methoxyphenyl) acrylamide] |
| A (GI50 < 50 nM) | C=CC(=O)Nc1cc(Nc2cc(N3OCC[C@@H]3c3c(F)ccc(F)c3F)ncn2)c(OC)cc1N1CCC(N2CCO[C@H](C)C2)CC1 [compound 646, N-(4-methoxy-2-(4-((R)-2-methylmorpholino)piperidine-1-yl)-5-((6-((R)-3-(2,3,6-trifluorophenyl)isoxazolidine-2-yl)pyrimidine-4-yl)amino)phenyl)acrylamide] |
| A (GI50 < 50 nM) | C=CC(=O)Nc1cc(Nc2cc(N3OCC[C@@H]3c3ccc(F)c(Cl)c3F)ncn2)c(OC)cc1N1CCC(N2CCN(CC)CC2)CC1 [compound 639, N-(5-((6-((R)-3-(3-chloro-2,4-difluorophenyl)isoxazolidine-2-yl)pyrimidine-4-yl)amino)-2-(4-(4-ethylpiperazine-1-yl)piperidine-1-yl)-4-methoxyphenyl) acrylamide] |
| A (GI50 < 50 nM) | C=CC(=O)Nc1cc(Nc2cc(N3OCC[C@@H]3c3cc(F)cc(Cl)c3)ncn2)c(OC)cc1N1CCC(N2C[C@@H]3C[C@H]2CO3)CC1 [compound 592, N-(2-(4-((1S,4S)-2-oxa-5-azabicyclo[2.2.1]heptane-5-yl)piperidine-1-yl)-5-((6-((R)-3-(3-chloro-5-fluorophenyl)isoxazolidine-2-yl)pyrimidine-4-yl)amino)-4-methoxyphenyl) acrylamide] |
| A (GI50 < 50 nM) | C=CC(=O)Nc1cc(Nc2cc(N3OCC[C@@H]3c3ccc(Cl)cc3)ncn2)c(OC)cc1N1CCC(N2C[C@H]3C[C@@H]2CO3)CC1 [compound 867, N-(2-(4-((1R,4R)-2-oxa-5-azabicyclo [2.2.1]heptane-5-yl)piperidine-1-yl)-5-((6-((R)-3-(4-chlorophenyl)isoxazolidine-2-yl)pyrimidine-4-yl)amino)-4-methoxyphenyl) acrylamide] |
| A (GI50 < 50 nM) | C=CC(=O)Nc1cc(Nc2cc(N3OCC[C@@H]3c3ccc(F)c(F)c3)ncn2)c(OC)cc1N1CCC(N2C[C@H]3C[C@@H]2CO3)CC1 [compound 498, N-(2-(4-((1R,4R)-2-oxa-5-azabicyclo[2.2.1]heptane-5-yl)piperidine-1-yl)-5-((6-((R)-3-(3,4-difluorophenyl)isoxazolidine-2-yl)pyrimidine-4-yl)amino)-4-methoxyphenyl) acrylamide] |
| A (GI50 < 50 nM) | C=CC(=O)Nc1cc(Nc2cc(N3OCC[C@@H]3c3cccc(Cl)c3F)ncn2)c(OC)cc1N1CCC(N2CCO[C@@H](C)C2)CC1 [compound 356, N-(5-((6-((R)-3-(3-chloro-2-fluorophenyl)isoxazolidine-2-yl)pyrimidine-4-yl)amino)-4-methoxy-2-(4-((S)-2-methylmorpholino)piperidine-1-yl)phenyl) acrylamide] |
